Measured values as given in article PMC4558462, “A new small molecule inhibitor of soluble guanylate cyclase” (Bioorganic & Medicinal Chemistry, 2015).
“Also recorded” adds a separate entry of the source. Read-outs that look alike come from different tables or passages of the source.

Legend:
sGCcat = molecular target: T1, sGCcat (Homo sapiens, UniProt Q02108+Q02153); experiment: SPR binding to catalytic domain of sGC; conditions: for sGCcat (SPR) binding norm. resp. (RU): Biacore T200, 25 °C; for binding to sGCcat (in words): discussion of Table 1
T1 construct: a smaller construct of the catalytic domain (sGCcat)
T1 sequence (Q02108 481-608 limits assumed): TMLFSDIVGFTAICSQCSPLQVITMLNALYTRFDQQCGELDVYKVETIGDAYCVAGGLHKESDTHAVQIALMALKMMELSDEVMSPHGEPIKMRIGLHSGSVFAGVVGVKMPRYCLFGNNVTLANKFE
T1 sequence (Q02153 421-554 limits assumed): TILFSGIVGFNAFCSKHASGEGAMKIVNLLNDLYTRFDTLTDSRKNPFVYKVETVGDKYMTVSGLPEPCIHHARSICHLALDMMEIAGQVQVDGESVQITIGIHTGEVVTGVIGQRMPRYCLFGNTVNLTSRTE
Experimental: We have previously described a surface plasmon resonance-based assay for the detection of binding of small molecules to full-length sGC and a smaller construct of the catalytic domain (sGCcat).[24] This assay was used to measure the binding of the compounds to sGCcat.[24] […] The position of the hydroxyl group can be changed whilst retaining binding strength and activity.
Surface plasmon resonance (SPR) experiments were performed with a Biacore T200 instrument at 25 °C. Data processing and analysis were performed using BIAevaluation software and Scrubber2. All sensorgrams were double referenced by subtracting the response in a reference flowcell and a blank sample. Materials and methods used were the same as previously published.[24]

purified bovine lung sGC = molecular target: T2, purified bovine lung sGC (Bos taurus, UniProt P16068+P19687); experiment: Soluble guanylate cyclase activity assay (cGMP radioimmunoassay); format: biochemical; conditions: for inhibition of sGC enzyme activity (in words): discussion of Table 1
T2 construct: screened at 100 μM against purified bovine lung sGC; purchased Enzo lifesciences ALX-202-039-C005; host or cells: bovine lung
T2 sequence (P19687 1-691): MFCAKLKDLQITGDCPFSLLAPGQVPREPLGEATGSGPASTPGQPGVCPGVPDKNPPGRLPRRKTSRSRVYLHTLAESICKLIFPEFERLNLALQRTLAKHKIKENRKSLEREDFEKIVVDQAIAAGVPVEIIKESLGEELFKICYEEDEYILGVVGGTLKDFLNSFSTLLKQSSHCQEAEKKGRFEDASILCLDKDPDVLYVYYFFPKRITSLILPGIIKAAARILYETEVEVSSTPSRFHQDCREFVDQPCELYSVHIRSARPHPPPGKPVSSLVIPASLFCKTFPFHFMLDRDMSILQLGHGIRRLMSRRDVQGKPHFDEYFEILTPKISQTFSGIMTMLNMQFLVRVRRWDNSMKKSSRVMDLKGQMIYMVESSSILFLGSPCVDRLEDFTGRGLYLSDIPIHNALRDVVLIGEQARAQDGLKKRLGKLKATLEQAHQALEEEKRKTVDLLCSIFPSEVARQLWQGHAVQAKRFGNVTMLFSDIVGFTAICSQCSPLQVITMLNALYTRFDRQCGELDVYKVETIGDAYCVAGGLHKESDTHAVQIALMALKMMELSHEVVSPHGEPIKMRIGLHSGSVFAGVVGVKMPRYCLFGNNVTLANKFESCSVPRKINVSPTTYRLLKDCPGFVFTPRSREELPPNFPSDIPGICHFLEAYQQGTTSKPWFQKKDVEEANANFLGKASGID
T2 sequence (P16068 1-619): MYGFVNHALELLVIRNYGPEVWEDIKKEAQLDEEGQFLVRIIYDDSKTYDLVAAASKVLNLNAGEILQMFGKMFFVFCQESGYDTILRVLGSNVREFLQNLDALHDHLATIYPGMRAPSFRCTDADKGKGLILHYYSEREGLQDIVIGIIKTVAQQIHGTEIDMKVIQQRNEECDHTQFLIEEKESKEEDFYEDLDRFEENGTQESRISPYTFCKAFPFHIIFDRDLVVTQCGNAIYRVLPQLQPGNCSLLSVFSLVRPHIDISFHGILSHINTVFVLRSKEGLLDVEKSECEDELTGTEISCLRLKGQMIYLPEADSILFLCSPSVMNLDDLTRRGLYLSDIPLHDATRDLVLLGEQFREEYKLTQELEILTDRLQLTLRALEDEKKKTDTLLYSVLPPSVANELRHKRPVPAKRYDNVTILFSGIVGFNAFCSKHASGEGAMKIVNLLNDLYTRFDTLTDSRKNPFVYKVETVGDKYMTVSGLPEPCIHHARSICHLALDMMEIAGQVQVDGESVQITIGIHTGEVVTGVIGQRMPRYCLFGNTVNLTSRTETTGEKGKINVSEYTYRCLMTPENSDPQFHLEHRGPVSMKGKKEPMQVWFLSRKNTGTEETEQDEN
Experimental: Virtual screening was performed by similarity searches using MACCS fingerprints at 85% and 75% Tanimoto of commercial libraries and the selected compounds were screened at 100 μM against purified bovine lung sGC using diethylamine NONOate (30 nM) as the NO donor. Enzyme activity was determined by measuring cGMP production using a standard cGMP [^3H] radioimmunoassay.[21,22]
[…] Compounds were added at 100 μM prior to adding the NO donor DEA/NO (30 nM) or clamped NO concentrations. cGMP generation was allowed to proceed for two minutes, after which aliquots were withdrawn and inactivated by boiling in 50 mM Tris, 4 mM EDTA buffer. cGMP formation was measured by a standard radioimmunoassay.

[1] = virtual screening hits, 100 μM compound, diethylamine NONOate 30 nM as NO donor, read-out: % inhibition of sGC activity at 100 μM compound
[2] = read-out: % inhibition of sGC activity at 100 μM compound
[3] = synthesised analogues, 100 μM, read-out: sGC activity% inhibition at 100 μM

| Molecule | sGCcat (SPR) binding norm. resp. (RU) (sGCcat) | binding to sGCcat (in words) (sGCcat) | inhibition at 100 µM (purified bovine lung sGC; [1]) | inhibition at 100 µM (purified bovine lung sGC; [2]) | inhibition at 100 µM (purified bovine lung sGC; [3]) | inhibition of sGC enzyme activity (in words) (purified bovine lung sGC) |
| --- | --- | --- | --- | --- | --- | --- |
| 6,7-Bis((3-hydroxyphenyl)amino)-N-methyl-2-naphthamide [Compound 28] | 9.6 ± 0.3 RU | higher binding | – | – | – | – |
| Clc1cccc(Nc2ncnc3ccccc23)c1Cl [Compound 5] | – | – | 51% | – | – | – |
| N#Cc1cc(Nc2cccc(Cl)c2)c(Nc2cccc(Cl)c2)cc1C#N [Compound 6] | – | – | 51% | – | – | – |
| Fc1cccc(Nc2nc3nonc3nc2Nc2cccc(F)c2)c1 [Compound 7] | – | – | 90% | – | – | – |
| O=[N+]([O-])c1ccccc1Nc1nc2nonc2nc1Nc1ccccc1[N+](=O)[O-] [Compound 8] | – | – | – | 90% | – | – |
| CC(=O)c1ccc(Nc2nc3cc([N+](=O)[O-])c([N+](=O)[O-])cc3nc2Nc2cccc(C(C)=O)c2)cc1 [Compound 9] | – | – | – | 73% | – | – |
| O=[N+]([O-])c1ccc2nc(Nc3cccc(O)c3)c(Nc3cccc(O)c3)nc2c1 [Compound 14, 3,3′-((6-Nitroquinoxaline-2,3-diyl)bis(azanediyl))diphenol] | 11.6 ± 0.8 RU | higher binding | – | – | 41.4% | – |
| COc1ccc(Nc2nc3ccc([N+](=O)[O-])cc3nc2Nc2ccc(OC)cc2)cc1 [Compound 15, N2,N3-Bis(4-methoxyphenyl)-6-nitroquinoxaline-2,3-diamine] | 1.0 ± 0.3 RU | reduced its binding strength | – | – | – | biochemically inactive |
| O=[N+]([O-])c1ccc2nc(Nc3ccccc3)c(Nc3ccccc3)nc2c1 [Compound 16, 6-Nitro-N2,N3-diphenylquinoxaline-2,3-diamine] | 2.6 ± 0.2 RU | – | – | – | – | – |
| CC(=O)Nc1ccc(Nc2nc3ccc([N+](=O)[O-])cc3nc2Nc2ccc(NC(C)=O)cc2)cc1 [Compound 17, N,N′-(((6-Nitroquinoxaline-2,3-diyl)bis(azanediyl))bis(4,1-phenylene))diacetamide] | 0.8 ± 0.3 RU | reduced its binding strength | – | – | – | biochemically inactive |
| CC(=O)Nc1cccc(Nc2nc3ccc([N+](=O)[O-])cc3nc2Nc2cccc(NC(C)=O)c2)c1 [Compound 18, N,N′-(((6-Nitroquinoxaline-2,3-diyl)bis(azanediyl))bis(3,1-phenylene))diacetamide] | 3.0 ± 1.0 RU | reduced its binding strength | – | – | – | biochemically inactive |
| O=[N+]([O-])c1ccc2nc(Nc3ccc(F)cc3)c(Nc3ccc(F)cc3)nc2c1 [Compound 19, N2,N3-Bis(4-fluorophenyl)-6-nitroquinoxaline-2,3-diamine] | 1.9 ± 1.8 RU | reduced its binding strength | – | – | – | biochemically inactive |
| Oc1ccc(Nc2nc3ccccc3nc2Nc2ccc(O)cc2)cc1 [Compound 20, 4,4′-(Quinoxaline-2,3-diylbis(azanediyl))diphenol] | 12.4 ± 0.1 RU | higher binding; also recorded: only a small decrease in binding | – | – | – | no significant inhibition |
| Oc1ccc(Nc2nc3ccc(C(F)(F)F)cc3nc2Nc2ccc(O)cc2)cc1 [Compound 21, 4,4′-((6-(Trifluoromethyl)quinoxaline-2,3-diyl)bis(azanediyl))diphenol] | 6.4 ± 0.5 RU | higher binding | – | – | 44.4% | – |
| Oc1cccc(Nc2nc3ccc(C(F)(F)F)cc3nc2Nc2cccc(O)c2)c1 [Compound 22, 3,3′-((6-(Trifluoromethyl)quinoxaline-2,3-diyl)bis(azanediyl))diphenol] | 3.0 ± 0.5 RU | – | – | – | 21.1% | – |
| N#Cc1ccc2nc(Nc3ccc(O)cc3)c(Nc3ccc(O)cc3)nc2c1 [Compound 23, 2,3-Bis((4-hydroxyphenyl)amino)quinoxaline-6-carbonitrile] | 4.5 ± 2 RU | bind to the receptor | – | – | – | do not inhibit the enzyme activity |
| N#Cc1ccc2nc(Nc3cccc(O)c3)c(Nc3cccc(O)c3)nc2c1 [Compound 24, 2,3-Bis((3-hydroxyphenyl)amino)quinoxaline-6-carbonitrile] | 10.5 ± 0.5 RU | bind to the receptor | – | – | – | do not inhibit the enzyme activity |
| Oc1ccc(Nc2nc3ccc(Cl)cc3nc2Nc2ccc(O)cc2)cc1 [Compound 25, 4,4′-((6-Chloroquinoxaline-2,3-diyl)bis(azanediyl))diphenol] | 9.7 ± 0.5 RU | bind to the receptor | – | – | – | do not inhibit the enzyme activity |
| Oc1cccc(Nc2nc3ccc(Cl)cc3nc2Nc2cccc(O)c2)c1 [Compound 26, 3,3′-((6-Chloroquinoxaline-2,3-diyl)bis(azanediyl))diphenol] | 9.0 ± 0.4 RU | bind to the receptor | – | – | – | do not inhibit the enzyme activity |
| CNC(=O)c1ccc2nc(Nc3ccc(O)cc3)c(Nc3ccc(O)cc3)nc2c1 [Compound 27, 2,3-Bis((4-hydroxyphenyl)amino)-N-methylquinoxaline-6-carboxamide] | 1.1 ± 0.3 RU | – | – | – | – | – |
| Nc1ccc2nc(Nc3ccc(O)cc3)c(Nc3ccc(O)cc3)nc2c1 [Compound 29, 4,4′-((6-Aminoquinoxaline-2,3-diyl)bis(azanediyl))diphenol] | 9.9 ± 0.2 RU | higher binding; also recorded: bind to the receptor | – | – | – | do not inhibit the enzyme activity |
